Target: human P2X3 receptor (Homo sapiens (Human), UniProt P56373)
Assay: P2X3 receptor inhibition, ATP-evoked Fluo-3 fluorescence (FDSS 3000)
Type: cell-based
Settings: C6BU-1 cell transfected with human P2X3 receptor gene

Sequence of human P2X3 receptor (P56373 whole entry): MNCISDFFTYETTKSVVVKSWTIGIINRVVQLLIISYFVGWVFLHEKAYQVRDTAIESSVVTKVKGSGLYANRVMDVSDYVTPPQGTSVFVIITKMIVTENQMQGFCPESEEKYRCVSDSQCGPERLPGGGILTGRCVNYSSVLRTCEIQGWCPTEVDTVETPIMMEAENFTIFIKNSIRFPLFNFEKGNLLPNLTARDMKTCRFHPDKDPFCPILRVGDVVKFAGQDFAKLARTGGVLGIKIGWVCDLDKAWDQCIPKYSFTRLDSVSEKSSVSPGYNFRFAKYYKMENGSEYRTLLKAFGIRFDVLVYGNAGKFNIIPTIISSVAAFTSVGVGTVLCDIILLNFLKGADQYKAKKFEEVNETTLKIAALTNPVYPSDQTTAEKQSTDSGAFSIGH

Row | SMILES | IC50
1 | Cc1ccc(Cn2c(Nc3cccc(C(F)(F)F)c3)nc(=O)n(C(C)C)c2=O)cc1 [I-021] | 197 nM
2 | Cc1ccc(Cn2c(Nc3ccc(OC(C)C)cc3)nc(=O)n(C(C)C)c2=O)cc1F [I-217] | 268 nM
3 | COc1ccc(/N=c2\[nH]c(=O)n(CC(C)(C)C(=O)O)c(=O)n2Cc2ccc(Cl)cc2)cc1C [I-447] | 279 nM
4 | O=c1nc(Nc2ccc(Oc3ccccc3)cc2)n(Cc2ccc(Cl)cc2)c(=O)n1CCO [I-334] | 99 nM
5 | O=c1nc(Nc2ccc(-c3ccon3)cc2)n(Cc2ccc(Cl)cc2)c(=O)n1CCO [I-278] | 931 nM
6 | CCOc1ccc(/N=c2\[nH]c(=O)n(C[C@@H](C)C(=O)O)c(=O)n2Cc2ccc(Cl)cc2)cc1Cl [I-487] | 27 nM
7 | CC(C)Oc1ccc(Nc2nc(=O)n(Cc3ccccn3)c(=O)n2Cc2ccc(Cl)cc2)cc1F [I-300] | 25 nM
8 | CNC(=O)Cn1c(=O)nc(Nc2ccc(OC(C)C)c(F)c2)n(Cc2ccc(Cl)cc2)c1=O [I-294] | 40 nM
9 | CC(C)Oc1ccc(Nc2nc(=O)n(CC(C)(CO)CO)c(=O)n2Cc2ccc(Cl)cc2)cc1F [I-274] | 9 nM
10 | CCn1ccc2cc(/N=c3\[nH]c(=O)n(CC(C)(C)C(=O)O)c(=O)n3Cc3ccc(Cl)cc3)ccc21 [I-493] | 952 nM
11 | CC(C)Oc1ccc(/N=c2\[nH]c(=O)n(C[C@@H](C)C(=O)O)c(=O)n2Cc2ccc(Cl)cc2)cc1F [I-455] | 30 nM
12 | N#CCOc1ccc(Nc2nc(=O)n(CCO)c(=O)n2Cc2ccc(Cl)cc2)cc1 [I-330] | 594 nM
13 | COC(=O)Cn1c(=O)[nH]/c(=N\c2ccc(OC(C)C)c(F)c2)n(Cc2ccc(C)cc2)c1=O [I-410] | 44 nM
14 | Cc1ccc(Cn2c(=O)n(CCCC(=O)O)c(=O)[nH]/c2=N\c2ccc3oc(C)cc3c2)cc1 [I-520] | 80 nM
15 | CC(C)Oc1ccc(Nc2nc(=O)n(C(C)C)c(=O)n2Cc2ccc(Cl)nc2)cc1Cl [I-235] | 985 nM
16 | COCCOc1ccc(Nc2nc(=O)n(C(C)C)c(=O)n2Cc2ccc(Cl)cc2)cc1Cl [I-237] | 230 nM

Row | SMILES | IC50
17 | Cc1ccc(Cn2c(=O)n(CC(=O)NC3(C(=O)O)CC3)c(=O)[nH]/c2=N\c2ccc(OC(C)C)c(F)c2)cc1 [I-419] | 71 nM
18 | Cc1cc2cc(/N=c3\[nH]c(=O)n(CCCC(=O)O)c(=O)n3Cc3ccc(Cl)cc3)ccc2o1 [I-505] | 120 nM
19 | CC(C)Oc1ccc(/N=c2\[nH]c(=O)n(CCC(=O)NCC#N)c(=O)n2Cc2ccc(Cl)cc2)cc1F [I-439] | 18 nM
20 | CC(C)n1c(=O)nc(Nc2ccc(OC3CCOCC3)c(Cl)c2)n(Cc2ccc(Cl)cc2)c1=O [I-239] | 116 nM
21 | CCn1c(=O)nc(Nc2cccc(C(F)(F)F)c2)n(Cc2ccc(F)cc2)c1=O [I-138] | 619 nM
22 | CC(C)Oc1ccc(/N=c2\[nH]c(=O)n(CCCC(=O)O)c(=O)n2Cc2ccc(Cl)cc2)cc1Cl [I-500] | 13 nM
23 | O=c1nc(Nc2ccc(F)c(F)c2)n(Cc2ccc(Cl)cc2)c(=O)n1CCO [I-316] | 712 nM
24 | CC(C)(Cn1c(=O)[nH]/c(=N\c2cccc(Cl)c2)n(Cc2ccc(Cl)cc2)c1=O)C(=O)O [I-468] | 137 nM
25 | O=c1nc(Nc2ccc(-c3ccon3)cc2)n(Cc2ccc(Cl)cc2)c(=O)n1CCN1CCOCC1 [I-287] | 222 nM
26 | Cc1ccc(Cn2c(=O)n(CC(=O)NC(CO)CO)c(=O)[nH]/c2=N\c2ccc(OC(C)C)c(F)c2)cc1 [I-414] | 7 nM
27 | CC(C)Oc1ccc(Nc2nc(=O)n(CCO)c(=O)n2Cc2ccc(F)cc2)cc1F [I-333] | 192 nM
28 | COC(=O)C(C)(C)Cn1c(=O)[nH]/c(=N\c2ccc(OC(C)C)c(Cl)c2)n(CC2CCCCCC2)c1=O [I-549] | 19 nM
29 | COC(=O)C(C)(C)Cn1c(=O)[nH]/c(=N\c2ccc(OC(C)C)c(C)c2)n(Cc2ccc(Cl)cc2)c1=O [I-431] | 4 nM
30 | CCOc1ccc(Nc2nc(=O)n(CCO)c(=O)n2Cc2ccc(Cl)cc2)cc1 [I-307] | 250 nM
31 | COC(=O)C(C)(C)Cn1c(=O)[nH]/c(=N\c2ccc(OC)c(C)c2)n(Cc2ccc(Cl)cc2)c1=O [I-442] | 117 nM
32 | CCOc1ccc(/N=c2\[nH]c(=O)n(CC(C)(C)C(=O)OC)c(=O)n2Cc2ccc(Cl)cc2)cc1Cl [I-441] | 11 nM

From patent US9150546B2, “Triazine derivative and pharmaceutical composition comprising the same” (SHIONOGI & CO., LTD., priority 2009, dated 2015)
